Common to all, as to assay: NCI-60 cell line screen, 48 h
The test system of assay [1] is NCI-H23 lung.
In assay [2] the test system is K-562 leukemia.
Assay [3] deals with IGROV1 ovarian.
Assay [4] deals with SK-MEL-28 melanoma.
Assay [5] concerns OVCAR-3 ovarian.
Assay [6] has as its system KM12 colon.
The test system of assay [7] is HCT-15 colon.
The test system of assay [8] is HT29 colon.
Assay [9] deals with NCI/ADR-RES ovarian.
Assay [10] concerns NCI-H226 lung.
For assay [11], the system named is SN12C renal.
Assay [12] deals with U251 CNS.
For assay [13], the system named is HL-60(TB) leukemia.
Assay [14] relates to EKVX NSCLC.
Assay [15] deals with SNB-75 CNS.
The test system of assay [16] is UACC-62 melanoma.
Assay [17] has as its system SK-OV-3 ovarian.
Assay [18] concerns UO-31 renal.
Assay [19] deals with SK-MEL-5 melanoma.
Assay [20] concerns TK-10 renal.

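The compound was tested at five concentrations on cells cultured in 96-well plates, with a 48-hour exposure period. At the TGI there is no net growth.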 A value given as a limit tells only on which side of the number the result lay.

`S=P1(Sc2ccccc2)Oc2ccc3ccccc3c2-c2c(ccc3ccccc23)O1`: the TGI in [1], in [2], in assay [3], in assay [4], in assay [5] and in [6] was over 100 µM in each case. The TGI in assay [7], in [8], in assay [9], in assay [10], in [11] and in [12] was over 100 µM in each case. In addition, the TGI in assay [13], in [14], in [15], in assay [16], in [17] and in assay [18] was over 100 µM each time. In addition, in [19], the TGI is over 100 µM.
In the case of `c1ccc2c3c(ccc2c1)-c1[nH]ncc1CCO3`, the TGI is 75.7 µM in [1]; over 100 µM in [2]; over 86.9 µM in [3]; over 100 µM in [4]; over 82.1 µM in assay [5]; over 100 µM in assay [6]. In addition, the TGI was over 100 µM in assay [7]; over 100 µM in assay [8]; over 100 µM in assay [9]; over 80.4 µM in [11]; 51.8 µM in assay [12]; 41.2 µM in assay [13]. Moreover, the TGI in assay [14] is 45 µM; in assay [15], over 74.9 µM; in assay [16] it was over 62.9 µM; in assay [17], over 100 µM; in assay [18], 65.2 µM; in assay [19], over 71.3 µM.
Take `CC(C)(C)c1ccc2c(c1)OP1(Oc3c(Cl)cc(Cl)c4cccnc34)(O2)Oc2ccc(C(C)(C)C)cc2O1`: the TGI in assay [1] is 21.8 µM; in assay [2] it was over 31.6 µM; in assay [3], 25.7 µM; in assay [4], 28.4 µM; in [5] it was 13.3 µM; in assay [6], 20.4 µM. Besides, the TGI in [7] was determined as 19.9 µM; in [8], 19.5 µM; in assay [9] it was 24.6 µM; in [10], 29.1 µM; in assay [11] it was 30.8 µM; in assay [12], 15.9 µM. The TGI in assay [13] is 10.1 µM; in assay [14], over 35.7 µM; in assay [15] it was 32.2 µM; in [16], 21.1 µM; in assay [17], 16.5 µM; in assay [18], 19.6 µM. Also, the TGI in assay [19] is 22.1 µM.
With `O=C1c2ccccc2N(O)C1(c1ccccc1)C1CCCC=C1N1CCOCC1` (stereo unspecified), the TGI in [1], in assay [2], in [3], in assay [4], in assay [5] and in assay [20] was over 100 µM throughout. Further, the TGI in assay [7], in assay [8], in assay [10], in assay [11], in assay [12] and in assay [13] was over 100 µM throughout. In addition, the TGI in assay [14], in assay [15], in assay [16], in assay [17], in assay [18] and in assay [19] was over 100 µM throughout.
Consider `Cc1ncn(-c2ccccc2O)c1C`, for which the TGI in assay [1], in [2], in assay [3], in [4], in assay [5] and in [6] was over 100 µM each time. In addition, the TGI in assay [20], in [7], in [8], in assay [9], in [10] and in assay [11] was over 100 µM in each case. The TGI in assay [12], in assay [13], in assay [14], in assay [15], in [16] and in assay [17] was over 100 µM throughout. Further, the TGI in assay [18] and in [19] was over 100 µM in each case.
For the compound `CN(C)Cc1cc(Cl)c(O)c(CN(C)C)c1`, the TGI in [1], in assay [2], in [3], in assay [4], in [5] and in [6] was over 100 µM in each case. Further, the TGI in assay [20], in assay [7], in assay [8], in assay [9], in assay [10] and in assay [11] was over 100 µM throughout. Also, the TGI in assay [12], in assay [13], in assay [14], in [15], in assay [16] and in assay [17] was over 100 µM in each case. Besides, the TGI in assay [18] and in assay [19] was over 100 µM each time.
For `COc1c2c(c3c(c1OC)c(=O)c1ccccc1n3C)OCO2`, the TGI in assay [1], in assay [2], in [3], in [4], in assay [5] and in assay [6] was over 100 µM throughout. Further, the TGI in [20], in assay [7], in [8], in assay [9], in [10] and in [11] was over 100 µM in each case. The TGI in [12], in assay [13], in [14], in [15], in [16] and in [17] was over 100 µM in each case. In addition, the TGI in assay [18] and in [19] was over 100 µM each time.
In the case of `C=C(/C=C/C=C(\C)CCC=C(C)C)[C@@H]1CC[C@]2([C@H](CCCO)/C(=C(/C)C=O)CC[C@]2(C)O)[C@@H]1O`, the TGI in assay [1] is 45.7 µM; in assay [2] it was 30.9 µM; in assay [3], 81.1 µM; in assay [4], 28.4 µM; in assay [6], 15.4 µM; in assay [20] it was 66.2 µM. For the same compound, the TGI in assay [7] was 34.2 µM; in assay [8], 30.9 µM; in assay [10] it was 56.2 µM; in [11], 31.4 µM; in assay [12] it was 28.5 µM; in assay [13], 35.4 µM. Also, the TGI was 44.1 µM in assay [14]; 99.4 µM in [15]; over 100 µM in assay [17]; 48 µM in [18]; 53.1 µM in [19].
Regarding `Cc1cn(C2CC(n3cc(Cn4ccc(=O)[nH]c4=O)nn3)C(CO)O2)c(=O)[nH]c1=O` (stereo unspecified), the TGI in assay [1], in [4], in [5], in assay [6], in assay [20] and in assay [7] was over 100 µM throughout. Besides, the TGI in assay [9], in assay [10], in [11], in assay [12], in assay [13] and in [15] was over 100 µM throughout. In addition, the TGI in assay [16], in assay [17], in assay [18] and in [19] was over 100 µM each time.
Consider `COc1ccc(C2CC(c3c(O)ccc4ccccc34)=NN2)cc1OC` (stereo unspecified), for which the TGI in assay [1] is 13.8 µM; in assay [2], over 100 µM; in [3], 20.1 µM; in assay [5], 20.6 µM; in [6], 11.4 µM; in assay [20] it was 14.4 µM. Moreover, the TGI in assay [7] amounted to 18.6 µM; in assay [8], 4.98 µM; in [9] it was 9.77 µM; in [10], 14.6 µM; in assay [11], 32.2 µM; in [12], 11 µM. The TGI was 63.5 µM in assay [13]; 22.1 µM in assay [14]; 12.2 µM in assay [15]; 13.6 µM in [16]; 28.8 µM in assay [17]; 5.7 µM in assay [18]. The same compound yielded a TGI in assay [19] of 12.6 µM.

The record behind these values is PubChem BioAssay (NCI).
